The text below walks through data of patent publication US8828908B2, “Herbicidally active bicyclic 1,3-dione compounds” (Syngenta Limited, priority 2007, dated 2014).

Common to all, as to format: in vivo
The test system of assay [1] is Setaria faberi (SETFA). Nature of the assay: Example B pre-emergence herbicidal greenhouse test. The note with it: 480 h, evaluated after 20 days, 100=total damage to plant, 0=no damage. Put shortly:
(§1)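 Pot-grown plants sprayed with compound in an aqueous emulsifiable formulation (Emulsogen EL, N-methylpyrrolidone, dipropylene glycol monomethyl ether, X-77) one day after sowing (pre-emergence) or after 10 days (post-emergence). Damage scored 0 (none) to 100 (total) after 20 days pre-emergence or 15 days post-emergence.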

Assay [2] has as its system Alopecurus myosuroides (ALOMY). Nature of the assay: Example B pre-emergence herbicidal greenhouse test. The note with it: 480 h, evaluated after 20 days, 100=total damage to plant, 0=no damage. Put shortly: as §1
Assay [3] deals with Digitaria sanguinalis (DIGSA). Nature of the assay: Example B pre-emergence herbicidal greenhouse test. The note with it: 480 h, evaluated after 20 days, 100=total damage to plant, 0=no damage. Put shortly: as §1
Assay [4] deals with Lolium perenne (LOLPE). Nature of the assay: Example B pre-emergence herbicidal greenhouse test. The note with it: 480 h, evaluated after 20 days, 100=total damage to plant, 0=no damage. Put shortly: as §1
The subject of assay [5] is Echinochloa crus-galli (ECHCG). Nature of the assay: Example B pre-emergence herbicidal greenhouse test. The note with it: 480 h, evaluated after 20 days, 100=total damage to plant, 0=no damage. Put shortly: as §1
Assay [6] has as its system Avena fatua (AVEFA). Nature of the assay: Example B pre-emergence herbicidal greenhouse test. The conditions noted are these: 480 h, evaluated after 20 days, 100=total damage to plant, 0=no damage. Put shortly: as §1
Assay [7] deals with Setaria faberi (SETFA). Nature of the assay: Example B post-emergence herbicidal greenhouse test. The conditions noted are these: 360 h, evaluated after 15 days, 100=total damage to plant, 0=no damage. Put shortly: as §1
Assay [8] relates to Alopecurus myosuroides (ALOMY). The assay is described as above. The conditions noted are these: 360 h, evaluated after 15 days, 100=total damage to plant, 0=no damage. Put shortly:
as §1

In assay [9] the test system is Digitaria sanguinalis (DIGSA). Described as above. The conditions noted are these: 360 h, evaluated after 15 days, 100=total damage to plant, 0=no damage. A digest of the protocol:
as §1

Assay [10] has as its system Lolium perenne (LOLPE). The description is as above. The conditions noted are these: 360 h, evaluated after 15 days, 100=total damage to plant, 0=no damage. Put shortly: as §1
The subject of assay [11] is Echinochloa crus-galli (ECHCG). Described as above. The note with it: 360 h, evaluated after 15 days, 100=total damage to plant, 0=no damage. Put shortly: as §1
In assay [12] the test system is Avena fatua (AVEFA). Described as above. The conditions noted are these: 360 h, evaluated after 15 days, 100=total damage to plant, 0=no damage. A digest of the protocol: as §1
Assay [13] concerns Setaria faberi (SETFA). The experiment in a line: Example A post-emergence herbicidal glasshouse test. The conditions noted are these: 312 h, evaluated after 13 days, 100=total damage to plant, 0=no damage. A digest of the protocol:
(§2)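 Herbicidal effect was judged 13 days after treatment as percent-style damage (100 = total kill). Seeds in standard soil had grown 1 day (pre) or 8 days (post) in a 24/16 °C, 14 h light, 65% humidity glasshouse before spraying with compound in acetone/water (50:50) containing 0.5% Tween 20.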

In assay [14] the test system is Alopecurus myosuroides (ALOMY). Described as above. The conditions noted are these: 312 h, evaluated after 13 days, 100=total damage to plant, 0=no damage. A digest of the protocol: as §2
Assay [15] has as its system Echinochloa crus-galli (ECHCG). Described as above. The conditions noted are these: 312 h, evaluated after 13 days, 100=total damage to plant, 0=no damage. Put shortly:
as §2

Assay [16] concerns Amaranthus retroflexus (AMARE). The assay is described as above. The conditions noted are these: 312 h, evaluated after 13 days, 100=total damage to plant, 0=no damage. A digest of the protocol:
as §2

Assay [17] concerns Avena fatua (AVEFA). The description is as above. The conditions noted are these: 312 h, evaluated after 13 days, 100=total damage to plant, 0=no damage. A digest of the protocol:
as §2

The test system of assay [18] is Setaria faberi (SETFA). The experiment in a line: Example A pre-emergence herbicidal glasshouse test. The note with it: 312 h, Rate 250 g/ha, evaluated after 13 days, 100=total damage to plant, 0=no damage to plant. A digest of the protocol:
as §2

Assay [19] has as its system Alopecurus myosuroides (ALOMY). The experiment in a line: Example A pre-emergence herbicidal glasshouse test. The note with it: 312 h, Rate 250 g/ha, evaluated after 13 days, 100=total damage to plant, 0=no damage to plant. Put shortly: as §2
Assay [20] has as its system Echinochloa crus-galli (ECHCG). The experiment in a line: Example A pre-emergence herbicidal glasshouse test. The note with it: 312 h, Rate 250 g/ha, evaluated after 13 days, 100=total damage to plant, 0=no damage to plant. Put shortly: as §2
Assay [21] has as its system Amaranthus retroflexus (AMARE). Nature of the assay: Example A pre-emergence herbicidal glasshouse test. The note with it: 312 h, Rate 250 g/ha, evaluated after 13 days, 100=total damage to plant, 0=no damage to plant. Put shortly: as §2
Assay [22] concerns Avena fatua (AVEFA). Nature of the assay: Example A pre-emergence herbicidal glasshouse test. The conditions noted are these: 312 h, Rate 250 g/ha, evaluated after 13 days, 100=total damage to plant, 0=no damage to plant. A digest of the protocol: as §2

Broadly, the pest or weed control is the degree to which the test organism was suppressed or injured, in per cent. Low values mean a weak effect, high ones a strong effect. Turning to `CCc1ccc(-c2ccc(Cl)c(C(F)(F)F)c2)cc1C1=C(O)[C@H]2CC[C@H](C2)C1=O` (single isomer, unassigned) [Compound T37], the pest or weed control at 250 g/ha with Setaria faberi (SETFA) [1] stood at 100%; in [2] it was 70%; in [3] it was 90%; in the assay on Lolium perenne (LOLPE) [4], 40%; in assay [5] it was 100%; in the assay on Avena fatua (AVEFA) [6] it was 60%. Moreover, the pest or weed control at 250 g/ha in the assay on Setaria faberi (SETFA) [13] is 100%; in assay [14], 90%; in assay [15], 100%; in [16], 20%; in the assay with Avena fatua (AVEFA) [17], 90%; in the assay with Setaria faberi (SETFA) [18] it was 90%. The pest or weed control at 250 g/ha is 50% in [19], 90% in assay [20], 0% in [21] and 0% in the assay with Avena fatua (AVEFA) [22]. The pest or weed control at 125 g/ha in the assay with Setaria faberi (SETFA) [7] is 100%; in [8] it was 70%; in assay [9] it was 100%; with Lolium perenne (LOLPE) [10] it was 30%; in assay [11], 100%; with Avena fatua (AVEFA) [12] it was 90%.
For the molecule `CCc1ccc(-c2ccc(Cl)c(F)c2)cc1C1=C(O)[C@H]2CC[C@H](C2)C1=O` (single isomer, unassigned) [Compound T36], the pest or weed control at 250 g/ha with Setaria faberi (SETFA) [1] stood at 90%; in assay [2], 70%; in assay [3], 100%; in the assay on Lolium perenne (LOLPE) [4], 90%; in assay [5], 100%; in the assay on Avena fatua (AVEFA) [6] it was 60%. Further, the pest or weed control at 250 g/ha in the assay with Setaria faberi (SETFA) [13] was 100%; in [14], 90%; in assay [15], 100%; in assay [16], 0%; in the assay with Avena fatua (AVEFA) [17] it was 100%; in the assay on Setaria faberi (SETFA) [18], 100%. In addition, the pest or weed control at 250 g/ha in assay [19] was found to be 70%; in assay [20], 100%; in [21] it was 0%; with Avena fatua (AVEFA) [22], 50%. In addition, the pest or weed control at 125 g/ha with Setaria faberi (SETFA) [7] turned out to be 100%; in assay [8], 80%; in assay [9], 100%; in the assay with Lolium perenne (LOLPE) [10] it was 30%; in assay [11], 100%; in the assay on Avena fatua (AVEFA) [12] it was 100%.
With `CCc1ccc(-c2ccc(Cl)cc2Cl)cc1C1=C(O)[C@H]2CC[C@H](C2)C1=O` [Compound T44, 3-(2′,4′-dichloro-4-ethylbiphen-3-yl)bicyclo[3.2.1]octane-2,4-dione], the pest or weed control at 250 g/ha in the assay with Setaria faberi (SETFA) [1] is 70%; in assay [2], 0%; in assay [3] it was 80%; with Lolium perenne (LOLPE) [4], 10%; in assay [5], 50%; in the assay on Avena fatua (AVEFA) [6] it was 10%. Besides, the pest or weed control at 250 g/ha with Setaria faberi (SETFA) [13] stood at 100%; in assay [14], 90%; in [15] it was 100%; in assay [16], 0%; with Avena fatua (AVEFA) [17], 90%; in the assay on Setaria faberi (SETFA) [18] it was 100%. Also, the pest or weed control at 250 g/ha in assay [19] stood at 50%; in assay [20], 90%; in assay [21], 0%; with Avena fatua (AVEFA) [22], 20%. The pest or weed control at 125 g/ha in the assay on Setaria faberi (SETFA) [7] came out at 100%; in [8], 60%; in [9], 100%; in the assay on Lolium perenne (LOLPE) [10], 30%; in [11], 100%; with Avena fatua (AVEFA) [12], 90%.
Regarding `CCc1ccc(-c2ccc(F)c(Cl)c2)cc1C1=C(O)[C@H]2CC[C@H](C2)C1=O` (single isomer, unassigned) [Compound T39], the pest or weed control at 250 g/ha came out at 90% in the assay on Setaria faberi (SETFA) [1]; 70% in assay [2]; 90% in [3]; 90% with Lolium perenne (LOLPE) [4]; 90% in [5]; 40% in the assay on Avena fatua (AVEFA) [6]. The pest or weed control at 250 g/ha in the assay with Setaria faberi (SETFA) [13] was 100%; in assay [14], 60%; in assay [15] it was 100%; in [16], 0%; in the assay on Avena fatua (AVEFA) [17], 30%; in the assay on Setaria faberi (SETFA) [18] it was 100%. Besides, the pest or weed control at 250 g/ha in assay [19] is 50%; in assay [20], 100%; in assay [21], 20%; in the assay on Avena fatua (AVEFA) [22], 30%. Also, the pest or weed control at 125 g/ha came to 70% in the assay with Setaria faberi (SETFA) [7]; 0% in [8]; 80% in assay [9]; 10% with Lolium perenne (LOLPE) [10]; 80% in [11]; 20% with Avena fatua (AVEFA) [12].
Regarding `CCc1ccc(-c2ccc(Cl)cc2C)cc1C1=C(O)[C@H]2CC[C@H](C2)C1=O` (single isomer, unassigned) [Compound T33], the pest or weed control at 250 g/ha with Setaria faberi (SETFA) [1] worked out at 70%; in assay [2], 60%; in [3], 70%; in the assay on Lolium perenne (LOLPE) [4], 70%; in assay [5], 70%; with Avena fatua (AVEFA) [6], 20%. The pest or weed control at 250 g/ha in the assay with Setaria faberi (SETFA) [13] came out at 100%; in assay [14], 60%; in assay [15], 100%; in assay [16], 0%; in the assay with Avena fatua (AVEFA) [17] it was 60%; with Setaria faberi (SETFA) [18] it was 90%. Moreover, the pest or weed control at 250 g/ha came out at 60% in assay [19], 90% in [20], 0% in assay [21] and 20% in the assay on Avena fatua (AVEFA) [22]. The pest or weed control at 125 g/ha was 100% with Setaria faberi (SETFA) [7]; 60% in assay [8]; 60% in [9]; 20% in the assay with Lolium perenne (LOLPE) [10]; 100% in assay [11]; 70% with Avena fatua (AVEFA) [12].
